Measured values as given in patent US20250382332A1, “NOVEL ALPHA-FACTOR BASED PEPTIDES WITH ANTIFUNGAL ACTIVITY” (INVAIO SCIENCES, INC., priority 2024, published 2025).
Peptide text beside a SMILES is read from it.

Test system: Botrytis cinerea (B05.10)
Assay: Resazurin antifungal assay of 180 alpha-factor peptide variants towards Botrytis (Example 2)
Assay type: cell-based
Details: % inhibition of fungal growth, Botrytis conidia, resazurin; for Inhibition at 10 μM: peptide 10 μM; for Inhibition at 20 μM: peptide 20 μM; for Inhibition at 50 μM: peptide 50 μM; for Inhibition at 100 μM: peptide 100 μM; for Inhibition at 15 μM: peptide 15 μM
Summary of the method: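 B. cinerea B05.10 conidia (5000/well) were exposed to peptides at 100, 50, 20, 15 and 10 μM final for 24 h at 20° C. Resazurin was then added and fluorescence read at 570/620 nm. Percent growth inhibition was calculated against conidia-only wells, with four technical replicates.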

Row | SMILES | Inhibition at 10 μM [%] | Inhibition at 20 μM [%] | Inhibition at 50 μM [%] | Inhibition at 100 μM [%] | Inhibition at 15 μM [%]
1 | CC[C@H](C)[C@H](NC(=O)[C@H](CCCNC(=N)N)NC(=O)[C@H](CC(C)C)NC(=O)[C@H](Cc1c[nH]c2ccccc12)NC(=O)[C@H](CCC(N)=O)NC(=O)[C@@H](N)Cc1c[nH]c2ccccc12)C(=O)N[C@@H](CCCCN)C(=O)N[C@@H](CO)C(=O)NCC(=O)N[C@@H](CCC(N)=O)C(=O)NCC(=O)N[C@@H](CCSC)C(=O)N[C@@H](Cc1ccc(O)cc1)C(=O)O [compound 73] (H-WQWLRIKSGQGMY-OH; N-terminus and C-terminus assumed) | <90 | <90 | 100 | 100 | –
2 | CSCC[C@H](NC(=O)[C@@H]1CCCN1C(=O)[C@H](CCC(N)=O)NC(=O)CNC(=O)[C@@H]1CCCN1C(=O)[C@H](Cc1c[nH]cn1)NC(=O)[C@H](CC(C)C)NC(=O)[C@H](CCCCN)NC(=O)[C@@H](NC(=O)[C@H](Cc1ccccc1)NC(=O)[C@H](Cc1c[nH]cn1)NC(=O)[C@@H](N)Cc1c[nH]c2ccccc12)C(C)C)C(=O)N[C@@H](Cc1ccc(O)cc1)C(=O)O [compound 74] (H-WHFVKLHPGQPMY-OH; N-terminus and C-terminus assumed) | <90 | <90 | 100 | 100 | –
3 | CC[C@H](C)[C@H](NC(=O)[C@H](Cc1c[nH]c2ccccc12)NC(=O)[C@H](Cc1c[nH]cn1)NC(=O)[C@@H](N)CCCCN)C(=O)N[C@@H](CCCNC(=N)N)C(=O)N[C@@H](CC(C)C)C(=O)N[C@@H](Cc1c[nH]c2ccccc12)C(=O)N1CCC[C@H]1C(=O)NCC(=O)N[C@@H](CCC(N)=O)C(=O)N1CCC[C@H]1C(=O)N[C@@H](CCSC)C(=O)N[C@@H](Cc1ccc(O)cc1)C(=O)O [compound 75] (H-KHWIRLWPGQPMY-OH; N-terminus and C-terminus assumed) | <90 | 92.02 | 100 | 100 | <90
4 | CSCC[C@H](NC(=O)[C@H](CO)NC(=O)[C@H](C)NC(=O)CNC(=O)[C@@H]1CCCN1C(=O)[C@H](CCCCN)NC(=O)[C@H](CC(C)C)NC(=O)[C@H](CCCNC(=N)N)NC(=O)[C@H](CC(C)C)NC(=O)[C@H](Cc1c[nH]c2ccccc12)NC(=O)[C@H](Cc1c[nH]cn1)NC(=O)[C@@H](N)Cc1c[nH]c2ccccc12)C(=O)N[C@@H](Cc1ccc(O)cc1)C(=O)O [compound 76] (H-WHWLRLKPGASMY-OH; N-terminus and C-terminus assumed) | <90 | 97.59 | 100 | 100 | <90
5 | CC[C@H](C)[C@H](NC(=O)[C@H](Cc1c[nH]c2ccccc12)NC(=O)[C@H](Cc1c[nH]cn1)NC(=O)[C@@H]1CCCN1)C(=O)N[C@@H](CCCCN)C(=O)N[C@@H](CC(C)C)C(=O)N[C@@H](Cc1c[nH]cn1)C(=O)N[C@H](C(=O)NCC(=O)N[C@@H](CCC(N)=O)C(=O)N1CCC[C@H]1C(=O)N[C@@H](CCSC)C(=O)N[C@@H](Cc1ccc(O)cc1)C(=O)O)[C@@H](C)O [compound 77] (H-PHWIKLHTGQPMY-OH; N-terminus and C-terminus assumed) | <90 | <90 | 100 | 99.74 | –
6 | CSCC[C@H](NC(=O)[C@@H]1CCCN1C(=O)[C@H](CCC(N)=O)NC(=O)CNC(=O)[C@@H]1CCCN1C(=O)[C@H](CCCCN)NC(=O)[C@H](Cc1ccccc1)NC(=O)[C@H](CC(N)=O)NC(=O)[C@H](CC(C)C)NC(=O)[C@H](Cc1ccccc1)NC(=O)[C@H](Cc1c[nH]cn1)NC(=O)[C@@H](N)CCCCN)C(=O)N[C@@H](Cc1ccc(O)cc1)C(=O)O [compound 78] (H-KHFLNFKPGQPMY-OH; N-terminus and C-terminus assumed) | <90 | <90 | 100 | 100 | –
7 | CC[C@H](C)[C@H](NC(=O)[C@H](CC(=O)O)NC(=O)[C@H](CCCNC(=N)N)NC(=O)[C@@H](N)Cc1c[nH]c2ccccc12)C(=O)N[C@@H](CCCNC(=N)N)C(=O)N[C@@H](CC(C)C)C(=O)N[C@@H](CCCCN)C(=O)N[C@@H](CCCCN)C(=O)NCC(=O)N[C@@H](CCC(N)=O)C(=O)N1CCC[C@H]1C(=O)N[C@@H](CCSC)C(=O)N[C@@H](Cc1ccc(O)cc1)C(=O)O [compound 79] (H-WRDIRLKKGQPMY-OH; N-terminus and C-terminus assumed) | <90 | <90 | 100 | 100 | –
8 | CSCC[C@H](NC(=O)[C@@H]1CCCN1C(=O)[C@H](CCC(N)=O)NC(=O)CNC(=O)[C@@H]1CCCN1C(=O)[C@H](CCCCN)NC(=O)[C@H](Cc1ccccc1)NC(=O)[C@H](CCCNC(=N)N)NC(=O)[C@H](CC(C)C)NC(=O)[C@@H](NC(=O)[C@H](Cc1c[nH]cn1)NC(=O)[C@@H](N)CCCCN)[C@@H](C)O)C(=O)N[C@@H](Cc1ccc(O)cc1)C(=O)O [compound 80] (H-KHTLRFKPGQPMY-OH; N-terminus and C-terminus assumed) | <90 | 99.56 | 100 | 100 | <90
9 | CC[C@H](C)[C@H](NC(=O)[C@H](Cc1c[nH]c2ccccc12)NC(=O)[C@H](Cc1c[nH]cn1)NC(=O)[C@@H](N)CCCCN)C(=O)N[C@@H](CCCCN)C(=O)N[C@@H](CC(C)C)C(=O)N[C@@H](CCCCN)C(=O)N[C@@H](CC(N)=O)C(=O)NCC(=O)N[C@@H](CCC(N)=O)C(=O)N1CCC[C@H]1C(=O)N[C@@H](CCSC)C(=O)N[C@@H](Cc1ccc(O)cc1)C(=O)O [compound 81] (H-KHWIKLKNGQPMY-OH; N-terminus and C-terminus assumed) | <90 | 99.51 | 100 | 100 | <90
10 | CSCC[C@H](NC(=O)[C@@H]1CCCN1C(=O)[C@H](CCC(N)=O)NC(=O)CNC(=O)[C@@H](NC(=O)[C@H](CCCCN)NC(=O)[C@H](CC(C)C)NC(=O)[C@H](CO)NC(=O)CNC(=O)[C@H](Cc1c[nH]c2ccccc12)NC(=O)[C@H](Cc1c[nH]cn1)NC(=O)[C@@H](N)Cc1c[nH]c2ccccc12)C(C)C)C(=O)N[C@@H](Cc1ccc(O)cc1)C(=O)O [compound 82] (H-WHWGSLKVGQPMY-OH; N-terminus and C-terminus assumed) | <90 | <90 | 100 | 100 | –
11 | CSCC[C@H](NC(=O)[C@@H]1CCCN1C(=O)[C@H](CCC(N)=O)NC(=O)CNC(=O)[C@@H]1CCCN1C(=O)[C@H](CCCCN)NC(=O)[C@H](CC(C)C)NC(=O)[C@H](CCCNC(=N)N)NC(=O)[C@H](CC(C)C)NC(=O)[C@@H](NC(=O)[C@H](Cc1c[nH]cn1)NC(=O)[C@@H](N)CCCCN)[C@@H](C)O)C(=O)N[C@@H](Cc1ccc(O)cc1)C(=O)O [compound 83] (H-KHTLRLKPGQPMY-OH; N-terminus and C-terminus assumed) | <90 | 99.92 | 100 | 100 | <90
12 | CSCC[C@H](NC(=O)[C@H](Cc1c[nH]cn1)NC(=O)[C@@H](N)CCCCN)C(=O)N[C@@H](CC(C)C)C(=O)N[C@@H](CCCNC(=N)N)C(=O)N[C@@H](Cc1ccccc1)C(=O)N[C@@H](CCCCN)C(=O)N1CCC[C@H]1C(=O)NCC(=O)N[C@@H](CCC(N)=O)C(=O)N1CCC[C@H]1C(=O)N[C@@H](CCSC)C(=O)N[C@@H](Cc1ccc(O)cc1)C(=O)O [compound 84] (H-KHMLRFKPGQPMY-OH; N-terminus and C-terminus assumed) | <90 | 97.08 | 100 | 100 | <90
13 | CSCC[C@H](NC(=O)[C@@H]1CCCN1C(=O)[C@H](CCC(=O)O)NC(=O)CNC(=O)[C@@H]1CCCN1C(=O)[C@H](CCCCN)NC(=O)[C@H](Cc1ccccc1)NC(=O)[C@H](CCCCN)NC(=O)[C@H](CC(C)C)NC(=O)[C@H](Cc1ccccc1)NC(=O)[C@H](Cc1c[nH]cn1)NC(=O)[C@@H](N)Cc1c[nH]c2ccccc12)C(=O)N[C@@H](Cc1ccc(O)cc1)C(=O)O [compound 85] (H-WHFLKFKPGEPMY-OH; N-terminus and C-terminus assumed) | <90 | <90 | 100 | 100 | –
14 | CC[C@H](C)[C@H](NC(=O)[C@H](CCCCN)NC(=O)[C@H](CC(C)C)NC(=O)[C@H](Cc1ccccc1)NC(=O)[C@H](Cc1c[nH]cn1)NC(=O)[C@@H](N)CCCCN)C(=O)N[C@@H](CCCCN)C(=O)N1CCC[C@H]1C(=O)NCC(=O)N[C@@H](CCC(N)=O)C(=O)N1CCC[C@H]1C(=O)N[C@@H](CCSC)C(=O)N[C@@H](Cc1ccc(O)cc1)C(=O)O [compound 86] (H-KHFLKIKPGQPMY-OH; N-terminus and C-terminus assumed) | <90 | 99.49 | 100 | 100 | <90
15 | CSCC[C@H](NC(=O)[C@@H]1CCCN1C(=O)[C@H](CCC(N)=O)NC(=O)CNC(=O)[C@@H]1CCCN1C(=O)[C@H](CCCCN)NC(=O)[C@H](Cc1ccccc1)NC(=O)[C@H](CCCCN)NC(=O)[C@H](CC(C)C)NC(=O)[C@@H](NC(=O)[C@H](Cc1c[nH]cn1)NC(=O)[C@@H](N)CCCCN)C(C)C)C(=O)N[C@@H](Cc1ccc(O)cc1)C(=O)O [compound 87] (H-KHVLKFKPGQPMY-OH; N-terminus and C-terminus assumed) | <90 | 98.89 | 100 | 100 | <90
